What was measured:
PDE4 (from U937 cells) = experiment: PDE4 (U937 cell-derived) enzyme assay; assay type: biochemical, human; settings: 1 µM cAMP
Method: PDE4 enzyme was purified from U937 human monocytic cells by gel filtration chromatography as previously described (Muller et al., 1998, Bioorg. & Med. Chem. Lett. 8:2669-2674). Phosphodiesterase reactions were carried out in 50 mM Tris HCl pH 7.5, 5 mM MgCl2, 1 µM cAMP, 10 nM [^3H]-cAMP for 30 min at 30°C, terminated by boiling, treated with 1 mg/ml snake venom, and separated using AG-1XS ion exchange resin (BioRad) as described (Muller et al., 1998, Bioorg. & Med. Chem. Lett. 8:2669-2674). Reactions consumed less than 15% of available substrate. Table 1. PDE Specificity

[1] = target: T1, PDE5 from human platelets (Homo sapiens, UniProt O76074); experiment: PDE5 enzyme assay; assay type: biochemical
T1 construct: PDE5 from human platelets; from tissue; host or cells: human platelets

[2] = tested on: neutrophil adhesion to HUVEC; experiment: fMLF-induced neutrophil adhesion to HUVEC; assay type: cell-based; settings: human neutrophils, 500 nM fMLF
Method: Human umbilical vein endothelial cells (HUVEC) were used as a substrate for neutrophil adhesion as previously described (Derian et al., 1995, J. Immunol., 154:308-317) with the following modifications. HUVEC cells were obtained from Anthrogenesis (Cedar Knolls, NJ, USA), and neutrophils were not treated with cytochalasin B. Cells were treated with compounds at 10, 1, 0.1, 0.01, 0.001, and 0 µM in a final DMSO concentration of 0.1% in duplicate for 10 minutes, stimulated with 500 nM fMLF for 30 minutes, and washed twice with PBS before measuring fluorescence on an FLX800 plate reader (Bio-Tek Instruments, Winooski, VT, USA). Table 2. Assay results

TNF-α [3] = experiment: IL-1β-induced TNF-α production from human PBMC; assay type: cell-based; settings: 50 ng/ml recombinant human IL-1β
Method: During the course of inflammatory diseases, TNF-α production is often stimulated by the cytokine 1L-1β, rather than by bacterially derived LPS. Compounds were tested for the ability to inhibit IL-1β-induced TNF-α production from human PBMC as described above for LPS-induced TNF-α production, except that the PBMC were isolated from source leukocyte units (Sera-Tec Biologicals, North Brunswick, NJ, USA) by centrifugation on Ficoll-Paque Plus (Amersham Pharmacia, Piscataway, NJ, USA), plated in 96-well tissue culture plates at 3 x 10^5 cells/well in RPMI-1640 medium (BioWhittaker, Walkersville, Maryland, USA) containing 10% heat-inactivated fetal bovine serum (Hyclone), 2 mM L-glutamine, 100 U/ml penicillin, and […] (complete medium), pretreated with compounds at 10, 2, 0.4, 0.08, 0.016, 0.0032, 0.00064, and 0 µM in duplicate at a final DMSO concentration of 0.1% at 37 °C in a humidified incubator at 5% CO2 for one hour, then stimulated with 50 ng/ml recombinant human IL-1β (Endogen) for 18 hours.

[4] = target: PDE7 purified from Hut78 human T cells (Homo sapiens, UniProt Q13946); experiment: PDE7 enzyme assay; assay type: biochemical
Sequence of PDE7 purified from Hut78 human T cells (Q13946 whole entry): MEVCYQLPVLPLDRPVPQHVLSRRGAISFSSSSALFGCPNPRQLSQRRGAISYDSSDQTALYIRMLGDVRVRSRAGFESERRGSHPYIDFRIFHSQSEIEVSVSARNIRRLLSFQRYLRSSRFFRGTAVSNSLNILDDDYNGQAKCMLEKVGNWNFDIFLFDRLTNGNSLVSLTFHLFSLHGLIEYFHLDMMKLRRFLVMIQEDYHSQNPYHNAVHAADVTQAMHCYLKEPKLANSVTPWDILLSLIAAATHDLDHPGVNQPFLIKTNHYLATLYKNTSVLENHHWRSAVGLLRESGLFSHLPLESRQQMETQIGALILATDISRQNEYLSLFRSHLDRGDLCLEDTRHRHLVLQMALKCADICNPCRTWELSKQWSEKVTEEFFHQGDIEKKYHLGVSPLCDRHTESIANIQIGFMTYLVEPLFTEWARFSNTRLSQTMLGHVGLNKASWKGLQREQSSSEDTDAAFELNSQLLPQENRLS
Method: PDE7 is a cAMP-selective PDE expressed mainly in T cells and in skeletal muscle. T cell-derived cytokines such as IL-2 and IFN-γ are potentially regulatable via PDE7 inhibition. […] Compounds were tested against the PDE7 preparation in the presence of 10 nM cAMP as described for PDE4 in Table 1.

IFN-γ = experiment: SEB-induced IFN-γ production in human PBMC; assay type: cell-based; settings: 100 ng/ml SEB
TNF-α [5] = experiment: Human Whole Blood LPS-induced TNF-α assay; assay type: cell-based
Method: The ability of compounds to inhibit LPS-induced-TNF-α production by human whole blood was measured essentially as described below for the LPS-induced TNF-α assay in human PBMC, except that freshly drawn whole blood was used instead of PBMC.
Lipopolysaccharide (LPS) is an endotoxin produced by gram-negative bacteria such as E. coli which induces production of many pro-inflammatory cytokines, including TNF-α. In peripheral blood mononuclear cells (PBMC), the TNF-α produced in response to LPS is derived from monocytes, which comprise approximately 5-20% of the total PBMC. Compounds were tested for the ability to inhibit LPS-induced TNF-α production from human PBMC as previously described (Muller et al., 1996, J. Med. Chem., 39:3238). PBMC from normal donors were obtained by Ficoll Hypaque (Pharmacia, Piscataway, NJ, USA) density centrifugation. Cells were cultured in RPMI (Life Technologies, Grand Island, NY, USA) supplemented with 10% AB± human serum (Gemini Bio-products, Woodland, CA, USA), 2 mM L-glutamine, 100 U/ml penicillin, and 100 µg/ml streptomycin (Life Technologies).
PBMC (2 x 10^5 cells) were plated in 96-well flat-bottom Costar tissue culture plates (Coming, NY, USA) in triplicate. Cells were stimulated with LPS (Sigma, St. Louis, MO, USA) at 100 ng/ml in the absence or presence of compounds. […]

CCOc1cc(C(CS(C)(=O)=O)N2C(=O)c3cccc(NC(C)=O)c3C2=O)ccc1OC (single isomer, unassigned; (+)) [Compound A, (+)-2-[1-(3-ethoxy-4-methoxyphenyl)-2-methylsulfonylethyl]-4-acetylaminoisoindoline-1,3-dione]
IC50 (PDE4 (from U937 cells)): 0.0735 µM
PDE Specificity Ratio PDE4/PDE5 ([1]; from above data): >30000 fold
inhibition at 10 µM ([1]; read-out: PDE5 (% inhib at 10 µM)): 3%
IC50 [2]: 0.15 µM
IC50 (TNF-α [3]): 0.083 µM
IC50 ([4]; 10 nM cAMP): 20.5 µM
PDE Specificity Ratio PDE7 IC50/PDE4 IC50 ([4]; from above data): 279 fold
IC50 (IFN-γ): 0.046 µM
IC50 (TNF-α [5]): 0.294 µM

From patent EP2276483B1, “SOLID FORMS COMPRISING (+)-2-[1-(3-ETHOXY-4-METHOXYPHENYL)-2-METHYLSULFONYLETHYL]-4-ACETYLAMINOISOINDOLINE-1,3-DIONE, COMPOSITIONS THEREOF, AND USES THEREOF” (CELGENE CORPORATION, priority 2008, dated 2009)
